Source: patent US9393288B2, “Methods of treating diseases associated with PPARγ” (The University of Vermont and State Agricultural College, priority 2012, dated 2016)

How the values were obtained:
[1] = tested on: parenchymal arterioles (PA); test: SKCa/IKCa channel blockers added to isolated pressurized PA; design: species or system rat; conditions: apamin 3×10^−7 M, TRAM-34 10^−6 M in the bath
Method: (§1) Vascular Reactivity and Structural Characteristics in PA and MCA: For the first set of experiments, PA and MCA were equilibrated for 1 hour at 25 mmHg, after which myogenic activity was determined by stepwise increases in pressure from 40 to 100 mmHg for PA or 50 to 175 mmHg for MCA. ID and WT were measured at each pressure once stable. Changes in ID and WT were measured in PA only in response to small- (SKCa) and intermediate- (IKCa) conductance calcium-activated potassium channels blockers, apamin (3×10^−7 M) and TRAM-34 (10^−6 M), respectively. PA are unique in that the contribution of endothelium-derived hyperpolarizing factors (EDHF) to tone is greater than most vessels Cipolla et al. (2009) Stroke 40, 1451-1457. Thus, inhibition of SKCa/IKCa channels, a critical component in the EDHF pathway, causes constriction in PA Cipolla et al. (2009) Stroke 40, 1451-1457. We therefore assessed the effect of relaxin on constriction of PA in response to SKCa/IKCa channel inhibition in order to assess this unique pathway. To obtain structural measurements, ID and WT were recorded at pressures between 5 to 200 mmHg for PA or 5 to 175 mmHg for MCA after papaverine (10^−4 M) and diltiazem (10^−5 M) were added to the bath. For the second set of experiments in which animals were treated with relaxin+GW9662, passive structural measurements were made as described above.

[2] = tested on: parenchymal arterioles (PA); test: Pressurized arteriograph: vascular reactivity and structure of PA from relaxin-treated NP Sprague Dawley rats; type: in vivo, rat; conditions: GW9662 10 mg/kg daily in food during relaxin infusion, 5 mmHg
Excerpt: (§2) Animals and Treatment Groups: All procedures were approved by the Institutional Animal Care and Use Committee and conducted in accordance with the National Institutes of Health Guide for the Care and Use of Laboratory Animals. Female virgin NP Sprague Dawley rats (250-300 g, 14-16 weeks, Charles River, Canada) were used for all experiments and housed in the University of Vermont Animal Care Facility. Animals were randomly selected and grouped as untreated (N=4), treated with recombinant human relaxin-2 (relaxin, 4 μg/hr; N=14), relaxin plus a specific PPARγ inhibitor GW9662 (10 mg/kg daily in food; N=8), or vehicle (20 mM sodium acetate; N=14) for 10 days through osmotic minipumps (Alzet 2ML2, Durect Corp., Cupertino, Calif., USA). GW9662 treatment was started 1 day before and for the duration of relaxin treatment to ensure PPARγ was inhibited. Animals were anesthetized with 3% isoflurane and minipumps implanted subcutaneously in the back of the neck. All animals received post-surgical analgesic (buprenorphine, 50 μg/kg, s.c.). Relaxin infusion was continuous for 10 days until animals were euthanized for vessel experiments and tissue collection. The minipumps used were capable of delivering relaxin for 14 days and thus tissue collection was within this duration.
Vessel Preparation and Pressurized Arteriograph System: After collecting trunk blood, the brain was quickly removed and placed in cold physiological salt solution (PSS). In the first set of experiments, PA between the M1 and M2 region of the MCA territory and the MCA from the same animals were carefully isolated from vehicle- or relaxin-treated animals and mounted on glass cannulas in a dual-chambered arteriograph such that one PA and one MCA from each animal were studied simultaneously. PA were identified as branches off the MCA that penetrated into the brain tissue, as previously described (25). In the second set of experiments, PA from the same brain region as above were dissected from relaxin+GW9662-treated animal and compared to PA from vehicle- and relaxin-treated animals. MCA were not studied in this second set of animals because there was no effect of relaxin on that segment of the vasculature. The proximal cannulas were connected to an in-line pressure transducer and a servo-null pressure control system (Living Systems Instrumentation, Burlington, Vt., USA) that allowed intravascular pressure to be maintained at a set pressure or changed at a variable rate. The distal cannulas were closed during the experiment to avoid flow-mediated responses. Temperature and pH were continuously measured and maintained at 37.0±0.5° C. and 7.40±0.05, respectively. Measurements of inner diameter (ID) and wall thickness (WT) were made via video microscopy (Living Systems Instrumentation).
as §1, with “To obtain structural measurements, ID and WT were recorded at pressures between 5 to 200 mmHg for PA or 5 to 175 mmHg for MCA after papaverine (10^−4 M) and diltiazem (10^−5 M) were added to the bath. For the second set of experiments in which animals were treated with relaxin+GW9662, passive structural measurements were made as described above.” left out

PPARγ target genes = test: PPARγ target gene expression (real-time qPCR) in adipose tissue, pial arteries and PA, NP Sprague Dawley rats; type: in vivo, rat; conditions: GW9662 co-treatment
Excerpt: as §2
Determination of RXFP1 and PPARγ Target Gene Expression: MCA and PA from 4 untreated rats were collected to determine expression level of RXFP1, the primary relaxin receptor, using real-time qPCR methods. We also collected adipose tissue, pial arteries, and PA from vehicle, relaxin and relaxin+GW9662 groups (n=6 for each group) for determination of PPARγ target gene expression. All collected samples were stored in RNase inhibitor (1 unit/μl, RiboLock, Fermentas, Glen Burnie, Md., USA) at −80° C. for comparing expression of fatty acid translocase (FAT)/CD36 and liver X receptors-α (LXRα) for adipose tissue, and plasminogen activator inhibitor-1 (PAI-1) for vasculature. Standard techniques for real-time qPCR were performed by the Vermont Cancer Center DNA analysis facility at the University of Vermont, as described previously Cipolla et al. (2009) Stroke 40, 1451-1457. Briefly, RNA was extracted from tissues and concentration and integrity was determined by a NanoDrop ND-1000 Spectrophotometer (Wilmington, Del.) and an Agilent 2100 Bioanalyzer (Santa Clara, Calif., USA), respectively. Samples with low RNA quality were excluded. cDNA was then made by a SuperScript III Kit (Invitrogen, Carlsbad, Calif., USA). Real-time qPCR was set up as follows: 10 μL Universal PCR Master Mix (Applied Biosystems, Foster City, Calif., USA), 1 μL Assay on Demand (Applied Biosystems), 8 μL water, and 1 μL cDNA. β2-microglobulin (B2M, housekeeping control) and target genes were assessed using Assays on Demand from Applied Biosystems. […] Primers were designed across an exon-exon junction to avoid detecting genomic DNA. Thus, no DNase treatment of samples was necessary. All samples were run in duplicates using a 7900HT Sequence Detection System (Applied Biosystems). […]
Data Calculations and Statistical Analysis: Percent tone was calculated as percent decrease in ID from the passive diameter at each intravascular pressure: [1−(IDactive/IDpassive)]×100%. Outer diameter (OD) was calculated from measured ID and WT: ID+2WT. Cross-sectional area (CSA) of the wall was calculated as: [(OD/2)2−(ID/2)2]×π. Data from qPCR study were analyzed using the −2^ΔΔCT method, as described previously Livak et al. (2001) Methods 25, 402-408. […]

[3] = tested on: parenchymal arterioles (PA); test: Pressurized arteriograph: vascular reactivity and structure of PA from female SHR; type: in vivo, rat; conditions: SHR-F-Rln-Axi vs SHR-F-Rln
Method: A separate group of SHR-F was used to determine if relaxin crosses the BBB by treating with relaxin (4 μg/hr) for 14 days and measuring relaxin concentration in cerebrospinal fluid (CSF) and serum (SHR-F-Rln-CSF, n=4). For the osmotic pump implant, animals were anesthetized with 3% isoflurane and minipumps implanted subcutaneously in the back of the neck. All animals received post-surgical analgesia (buprenorphine, 50 μg/kg, s.c.). Relaxin infusion was continuous for 14 days until animals were euthanized for isolated vessel experiments and tissue collection.
After collecting trunk blood, the brain was quickly removed and placed in cold physiological salt solution (PSS). PA between the M1 and M2 region of the MCA territory and the MCA from the same animals were carefully isolated from WKY-F, SHR-F, and SHR-F-Rln groups and mounted on glass cannulas. PA were identified as branches off the MCA that penetrated into the brain tissue, as previously described (han, S. L., and Cipolla, M. J. (2011) Relaxin causes selective outward remodeling of brain parenchymal arterioles via activation of peroxisome proliferator-activated receptor-gamma. FASEB J 25, 3229-3239). […] The proximal cannula was connected to an in-line pressure transducer and a servo-null pressure control system (Living Systems Instrumentation, Burlington, Vt., USA) that allowed intravascular pressure to be maintained at a set pressure or changed at a variable rate. The distal cannula was closed during the experiment to avoid flow-mediated responses. Temperature and pH were continuously measured and maintained at 37.0±0.5° C. and 7.40±0.05, respectively. Measurements of inner diameter (ID) and wall thickness (WT) were made via video microscopy (Living Systems Instrumentation, Burlington, Vt.).
PA and MCA were equilibrated for 1 hour, after which myogenic activity was determined by stepwise increases in pressure from 40 to 100 mmHg for PA or 50 to 175 mmHg for MCA. ID and WT were measured at each pressure once stable. Endothelium-dependent dilation was studied by adding NS309 (10^−8-10^−5 M), an activator of small- and intermediate-conductance calcium-activated potassium channels (SKCa, IKCa). NS309 was washed out of the bath and a single concentration of the nitric oxide synthase (NOS) inhibitor L-nitro-n-arginine (L-NNA, 10^−4 M) added to the bath. Constriction to NOS inhibition was used as an additional indicator of endothelial function. In the presence of L-NNA, sodium nitroprusside (SNP, 10^−8-10^−5 M) was added to the bath to assess endothelium-independent vasodilation. To obtain structural measurements, ID and WT were recorded at pressures between 5 to 200 mmHg for PA or 5 to 175 mmHg for MCA in zero-calcium PSS containing ethylene glycol tetra-acetic acid (EGTA) and outer diameter (OD) and distensibility calculated.
Percent tone was calculated as percent decrease in ID from the passive diameter at each intravascular pressure: [1−(IDactive/IDpassive)]×100. Percent reactivity for vasodilators was calculated as ((IDdose−IDstart)/(IDpassive−IDstart))×100. Percent constriction for vasoconstrictor was calculated as (1−(IDdose/IDstart))×100. OD was calculated from measured ID and WT: ID+2WT. Distensibility at a given pressure was calculated as (IDpassive−IDoriginal)/(IDoriginal)×100, where IDoriginal is defined as passive inner diameter determined at lowest pressure (5 mmHg). Data from qPCR study were analyzed using the −2^ΔΔCT method, as described previously (Livak, K. J., and Schmittgen, T. D. (2001) Analysis of relative gene expression data using real-time quantitative PCR and the 2(−Delta Delta C(T)) Method. Methods 25, 402-408). Data were removed when the Ct values of technical replicates differed by more than 0.5.

Clc1ccccc1C(c1ccccc1)(c1ccccc1)n1cccn1 [TRAM-34]
Vasoconstriction of PA [1]: greater vasoconstriction

O=C(Nc1ccccc1)c1cc([N+](=O)[O-])ccc1Cl [GW9662, reference compound]
Structural changes of PA induced by relaxin [2]: prevented
Relaxin-induced change of CD36 gene expression in adipose tissue (PPARγ target genes): normalized

CNC(=O)c1ccccc1Sc1ccc2c(/C=C/c3ccccn3)n[nH]c2c1 [axitinib, reference compound]
Relaxin-induced increased distensibility of PA [3]: no effect
